Columns and labels:
[1] = target: T1, TbAAT5-3 (Trypanosoma brucei, UniProt Q57UX9); test: competition of L-[3H]-arginine uptake in S. cerevisiae […]c; type: cell-based; details: 5000 µM; 50 μM L-arginine; pH 6.0
T1 construct: gene Tb08.4A8.362; full-length ORF (1377 bp incl. stop) in pDR197, untagged, expressed in S. cerevisiae 21.983c; nt 96 resolved as C (Asp)
T1 sequence (Q57UX9 1-458): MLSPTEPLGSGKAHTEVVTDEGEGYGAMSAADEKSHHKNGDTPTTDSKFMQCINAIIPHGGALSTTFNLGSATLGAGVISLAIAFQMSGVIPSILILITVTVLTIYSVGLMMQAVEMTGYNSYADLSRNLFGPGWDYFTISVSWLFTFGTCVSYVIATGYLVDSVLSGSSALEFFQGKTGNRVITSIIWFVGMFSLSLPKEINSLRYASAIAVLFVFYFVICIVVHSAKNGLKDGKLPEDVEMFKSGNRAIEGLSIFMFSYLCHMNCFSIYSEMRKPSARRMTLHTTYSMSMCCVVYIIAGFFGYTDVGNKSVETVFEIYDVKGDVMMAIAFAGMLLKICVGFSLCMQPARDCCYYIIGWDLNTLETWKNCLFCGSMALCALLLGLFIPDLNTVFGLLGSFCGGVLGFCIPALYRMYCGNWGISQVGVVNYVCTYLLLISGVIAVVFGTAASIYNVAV

[2] = target: T1, TbAAT5-3; test: as above; type: cell-based; details: 500 µM, 50 μM L-arginine, pH 6.0
[3] = target: T2, TbAAT16-1 (Trypanosoma brucei, UniProt Q381K2); test: competition of L-[3H]-lysine uptake in S. cerevisiae […]Δ7AA; type: cell-based; details: 500 µM; 50 μM L-lysine; pH 4.5
T2 construct: gene Tb11.01.7500; full-length ORF (1389 bp incl. stop) in pDR197, untagged, expressed in S. cerevisiae 22Δ7AA; syntenic TREU927 gene Tb927.11.15840
T2 sequence (Q381K2 1-462): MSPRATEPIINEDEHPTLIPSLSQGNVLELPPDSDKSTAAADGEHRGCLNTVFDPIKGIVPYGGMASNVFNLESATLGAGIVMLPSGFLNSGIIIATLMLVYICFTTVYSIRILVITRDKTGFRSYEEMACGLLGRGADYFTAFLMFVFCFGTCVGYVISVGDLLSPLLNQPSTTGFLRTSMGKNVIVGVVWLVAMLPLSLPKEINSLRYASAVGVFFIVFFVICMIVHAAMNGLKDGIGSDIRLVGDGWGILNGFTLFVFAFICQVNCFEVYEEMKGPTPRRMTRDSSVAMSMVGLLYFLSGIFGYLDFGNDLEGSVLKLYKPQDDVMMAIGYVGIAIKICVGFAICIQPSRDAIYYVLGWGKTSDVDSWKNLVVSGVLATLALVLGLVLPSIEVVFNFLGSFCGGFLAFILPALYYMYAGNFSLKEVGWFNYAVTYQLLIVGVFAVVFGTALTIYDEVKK

[4] = substrate: NCCCC[C@H](N)C(=O)O; test: cells, lysate or membranes; details: labelled compound, 30 °C, 100 mM glucose, empty-vector background subtracted, pH of this assay not given
[5] = substrate: N=C(N)NCCC[C@H](N)C(=O)O; test: cells, lysate or membranes; type: cell-based, Trypanosoma brucei; details: labelled compound, 30 °C, 100 mM glucose, empty-vector background subtracted, pH of this assay not given

CCOC(=O)[C@@H](N)CCCNC(=N)N [Arginine ethyl ester]
L-[^3H]-arginine uptake rate (%) / 100x [1]: 72.5 ± 8.7%

COC(=O)[C@@H](N)CCCNC(=N)N [Arginine methyl ester]
L-[^3H]-arginine uptake rate (%) / 100x [1]: 67.6 ± 10.3%

N=C(N)NCCC[C@H](N)C(=O)Nc1ccc2ccccc2c1 [Arginine-β-naphthylamide]
L-[^3H]-arginine uptake rate (%) / 10x ([2]; unspecific effect of the amphipathic compound not excluded): 69 ± 6.6%

N=C(N)NOCC[C@H](N)C(=O)O [Canavanine]
L-[^3H]-arginine uptake rate (%) / 10x [2]: 38.5 ± 4.5%

NCCCC[C@H](NC(=O)OCC1c2ccccc2-c2ccccc21)C(=O)O [Fmoc-Lysine, N-α-(9-fluorenylmethyloxycarbonyl)-L-lysine]
L-[^3H]-lysine uptake rate (%) / 10x [3]: 57.6 ± 6.9%

N=C(N)NCCCC[C@H](N)C(=O)O [Homoarginine]
L-[^3H]-arginine uptake rate (%) / 10x [2]: 25.6 ± 4.2%

NCCCC[C@H](N)C(=O)O [L-lysine]
L-[^3H]-arginine uptake rate (%) / 100x [1]: 56.5 ± 8.2%

NCCSC[C@H](N)C(=O)O [Thialysine, S-(2-aminoethyl)-L-cysteine]
L-[^3H]-lysine uptake rate (%) / 10x [3]: 35.3 ± 1.8%

B1: TbAAT16-1 (Trypanosoma brucei brucei TREU927) (protein)
chain: MSPRATEPIINEDEHPTLIPSLSQGNVLELPPDSDKSTAAADGEHRGCLNTVFDPIKGIVPYGGMASNVFNLESATLGAGIVMLPSGFLNSGIIIATLMLVYICFTTVYSIRILVITRDKTGFRSYEEMACGLLGRGADYFTAFLMFVFCFGTCVGYVISVGDLLSPLLNQPSTTGFLRTSMGKNVIVGVVWLVAMLPLSLPKEINSLRYASAVGVFFIVFFVICMIVHAAMNGLKDGIGSDIRLVGDGWGILNGFTLFVFAFICQVNCFEVYEEMKGPTPRRMTRDSSVAMSMVGLLYFLSGIFGYLDFGNDLEGSVLKLYKPQDDVMMAIGYVGIAIKICVGFAICIQPSRDAIYYVLGWGKTSDVDSWKNLVVSGVLATLALVLGLVLPSIEVVFNFLGSFCGGFLAFILPALYYMYAGNFSLKEVGWFNYAVTYQLLIVGVFAVVFGTALTIYDEVKK
Km [4]: 4.3 ± 0.5 µM

B2: TbAAT5-3 (Trypanosoma brucei brucei TREU927) (protein)
chain: MLSPTEPLGSGKAHTEVVTDEGEGYGAMSAADEKSHHKNGDTPTTDSKFMQCINAIIPHGGALSTTFNLGSATLGAGVISLAIAFQMSGVIPSILILITVTVLTIYSVGLMMQAVEMTGYNSYADLSRNLFGPGWDYFTISVSWLFTFGTCVSYVIATGYLVDSVLSGSSALEFFQGKTGNRVITSIIWFVGMFSLSLPKEINSLRYASAIAVLFVFYFVICIVVHSAKNGLKDGKLPEDVEMFKSGNRAIEGLSIFMFSYLCHMNCFSIYSEMRKPSARRMTLHTTYSMSMCCVVYIIAGFFGYTDVGNKSVETVFEIYDVKGDVMMAIAFAGMLLKICVGFSLCMQPARDCCYYIIGWDLNTLETWKNCLFCGSMALCALLLGLFIPDLNTVFGLLGSFCGGVLGFCIPALYRMYCGNWGISQVGVVNYVCTYLLLISGVIAVVFGTAASIYNVAV
notes: full-length ORF (1377 bp incl. stop) in pDR197, untagged, expressed in S. cerevisiae 21.983c; nt 96 resolved as C (Asp)
Km [5]: 3.6 ± 0.4 µM
